Consider two compounds from patent publication US8680137B2, “Agents and methods for treating ischemic and other diseases” (Nono Inc., priority 2009, dated 2014).

The IC50 is the concentration at which inhibition is half-maximal.

Assay [1] deals with HeLa cervical cancer cells. The assay can be described thus: Cancer cell proliferation, HeLa. Type of assay: cell-based, human. The settings on record: FIG. 79. The procedure:
(§1) To determine the breadth of efficacy in cancers, we examined the efficacy of a range of TRPM7 inhibitors for their ability to inhibit cell proliferation in cancer cell lines. Representative figures are included as examples.
(§2) Cells (Table 1) were grown to 70% confluency, trypsinized, counted, and seeded in 96-well flat-bottom plates at a final concentration of 2.5×10^3-5.0×10^3 cells/well in growth media containing 5% FBS (Day 0). Other well sizes and cell densities were used successfully as well. Cells were allowed to incubate in growth media for 24 hours to allow for maximum adhesion. Treatment with the test agent began on Day 1 and continued for 72 hours either with or without retreatment. At the 72 hour time point, viable cell numbers are quantified by the CellTiter-Glo® cell viability assay as described above, or using standard MTT, SRB or BrDU assays. Experiments were repeated at least twice with the same concentrations to determine growth inhibitory activity.
Data Collection—For the cell proliferation studies, data from each experiment was collected and expressed as % Cell Growth using the following calculation: % Cell Growth=(ftest/fvehicle)×100 Where ftest is the luminescent signal of the tested sample, and fvehicle is the luminescence of the vehicle in which the drug is dissolved (or appropriate measure for the other viability/proliferation measures). […]

The subject of assay [2] is A375 melanoma. The assay can be described thus: Cancer cell proliferation, A375. The format is cell-based. The settings on record: Homo sapiens. As to the method: as §1, §2
(§3) Data Collection—For the cell proliferation studies, data from each experiment was collected and expressed as % Cell Growth using the following calculation: % Cell Growth=(ftest/fvehicle)×100 Where ftest is the luminescent signal of the tested sample, and fvehicle is the luminescence of the vehicle in which the drug is dissolved (or appropriate measure for the other viability/proliferation measures). Dose response graphs and IC50 values were generated using standard software using the following variable slope equation: […]

In assay [3] the test system is RXF-393 renal. As to the kind of experiment: Cancer cell proliferation, RXF-393. The format is cell-based, human. The settings on record: for IC50: Homo sapiens. As to the method: as §1, §2, §3
Assay [4] has as its system B16F10 melanoma. As to the kind of experiment: Murine tumor model of B16F10 melanoma. Type of assay: in vivo, mouse. The settings on record: intravenous 20 mg/kg once daily. The procedure: To evaluate the efficacy of TRPM7 inhibitors in vivo, M6 was selected to for a pilot evaluation of its ability to reduce tumor formation in a murine tumor model of B16F10 melanoma and a RXF-393 human renal cell carcinoma xenograft model of tumor proliferation. […] For each tumor model, an appropriate number of cells were injected into the right flank (˜3-5 million cells per animal in 0.1 ml 50% matrigel/50% media). When tumor sizes reached 100-150 mg, animals were randomized into control (vehicle only), positive control or M6. M6 was given by intravenous injection to 20 mg/kg once daily. Tumors were measured and the weights were calculated by standard means.

For assay [5], the system named is formalin-induced pain behaviors. The assay can be described thus: Formalin induced inflammatory pain in rats. The format is in vivo, rat. Conditions: i.v. administration, formalin 2.5% 50 μL plantar hindpaw.

Structures are written as SMILES. Like-named read-outs stand apart in the source and are kept apart here.

As to `COc1cc2c(cc1OC)C(c1sc3ccccc3c1Cl)=NCC2` [Compound M6], the “proliferation (BrDU incorporation)” value in assay [1] is on record as “significantly reduce proliferation”. In addition, the IC50 in assay [2] (A-375, 72 h, A375, Exp 1, 72 hours, read-out: IC50) worked out at 12.6 µM; in assay [2] (A-375, 72 h, A375, Exp 2, 72 hours, read-out: IC50), 14.2 µM; in assay [2] (A-375, A375, mean of Exp 1 and Exp 2, read-out: Mean IC50), 13.4 µM; in assay [3] (RXF 393, 72 h, RXF393, Exp 1, 72 hours, read-out: IC50) it was 5.3 µM; in assay [3] (RXF 393, 72 h, RXF393, Exp 2, 72 hours, read-out: IC50), 8.1 µM; in assay [3] (RXF 393, RXF393, mean of Exp 1 and Exp 2, read-out: Mean IC50), 6.7 µM. The “Demonstrated Reduction of Proliferation at or below 10 μM Inhibitor concentration” value in assay [3] (RXF-393, >20% inhibition at 48-96 hours, MTT, SRB, luminescence or BrDU) is reported as “RXF-393 renal”. In addition, in assay [4], the melanoma tumor growth entry was “reduces tumor growth”.
In the case of `Cc1c(Cc2ccc(Cl)c(Cl)c2)c(=O)oc2cc(O)ccc12` [Compound M21], in assay [5], the “formalin-induced phase 1 (0-8 min) flinches” value is “little effect” and the “formalin-induced phase 2 pain (9-60 min) flinches” value is “significantly reduced”.
